# Literature values as cited in patent publication US20080167327A1, “HYDRATES OF ERLOTINIB HYDROCHLORIDE” (priority 2006, published 2008).
# Structures can show the parent of a compound that is named as a salt.
# Assays:
# [1] = compared with Form A; disclosed in WO 01/34574
# [2] = compared with Form B; disclosed in WO 2004/072049
Compound,thermodynamic stability [1],solubility [2]
"C#Cc1cccc(Nc2ncnc3cc(OCCOC)c(OCCOC)cc23)c1 [Form B, erlotinib hydrochloride]",thermodynamically more stable than Form A,
"C#Cc1cccc(Nc2ncnc3cc(OCCOC)c(OCCOC)cc23)c1 [Form E, erlotinib hydrochloride]",,higher solubility
